Here are results for 14 molecules from patent US20130267494A1, “1,4-OXAZEPANE DERIVATIVES” (priority 2010, published 2013).

Format in all cases: cell-based
The target of test [1] is T1, human serotonin transporter (Homo sapiens, UniProt P31645).
T1 construct: expressed in transfected cells
Kind of test: Inhibitory action on human serotonin transporter ([3H]-5-hydroxytryptamine uptake in CHO cells). To be noted: CHO, compound 1 μM; relative to inhibitory activity of 10 μM Paroxetine as 100%; read-out: inhibitory rate (%). The method, boiled down:
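CHO-K1 cells stably expressing human SERT, plated overnight, took up [3H]-5-HT (diluted to 200 nM before a 1:10 addition) for 20 min in HEPES-buffered saline with glucose and 0.5% BSA; radioactivity counted by scintillation. Compounds at 10 μM or 1 μM, activity expressed relative to 10 μM paroxetine set as 100%.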

Test [2] deals with T2, human dopamine transporter (Homo sapiens, UniProt Q01959).
T2 construct: expressed in transfected cells
T2 sequence (Q01959 whole entry): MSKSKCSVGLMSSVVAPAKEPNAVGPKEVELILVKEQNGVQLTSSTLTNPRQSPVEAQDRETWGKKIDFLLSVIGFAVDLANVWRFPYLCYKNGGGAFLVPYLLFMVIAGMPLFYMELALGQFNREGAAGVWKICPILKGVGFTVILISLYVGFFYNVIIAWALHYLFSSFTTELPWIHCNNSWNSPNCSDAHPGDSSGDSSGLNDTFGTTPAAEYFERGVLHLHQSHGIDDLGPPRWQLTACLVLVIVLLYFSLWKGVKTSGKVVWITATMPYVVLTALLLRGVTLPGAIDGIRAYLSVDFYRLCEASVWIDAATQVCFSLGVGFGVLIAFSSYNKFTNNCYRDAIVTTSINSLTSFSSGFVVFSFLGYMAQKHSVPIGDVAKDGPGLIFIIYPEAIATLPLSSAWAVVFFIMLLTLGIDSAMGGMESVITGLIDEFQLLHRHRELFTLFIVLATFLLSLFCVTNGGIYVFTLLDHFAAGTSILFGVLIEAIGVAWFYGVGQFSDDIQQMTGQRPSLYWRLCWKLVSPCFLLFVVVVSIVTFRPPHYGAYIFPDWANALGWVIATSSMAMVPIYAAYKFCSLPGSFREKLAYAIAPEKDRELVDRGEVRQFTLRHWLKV
Kind of test: Inhibitory action on human dopamine transporter ([3H]-dopamine uptake in CHO cells). The settings on record: CHO, compound 1 μM; relative to inhibitory activity of 100 μM Nomifensine as 100%; read-out: inhibitory rate (%). The method, boiled down: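 CHO-K1 cells stably expressing human dopamine transporter, exposed to compound at 10 μM or 1 μM in HEPES-buffered saline with 0.5% BSA. [3H]-dopamine uptake measured over 60 min by scintillation counting. Activity expressed relative to 100 μM nomifensine as 100%.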

Test [3] has as its target T3, human norepinephrine transporter (Homo sapiens, UniProt P23975).
T3 construct: expressed in transfected cells
Nature of the test: Inhibitory action on human norepinephrine transporter ([3H]-norepinephrine uptake in CHO cells). The settings on record: CHO, compound 1 μM; relative to inhibitory activity of 10 μM DMI as 100%; read-out: inhibitory rate (%). A digest of the protocol: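 Stably transfected CHO-K1 cells plated overnight, then given test compound and [3H]-norepinephrine (20 nM final, from 200 nM) in HEPES-buffered saline with 0.5% BSA for 45 min. After PBS washes, retained radioactivity counted by scintillation. Inhibition at 10 μM or 1 μM compound expressed relative to 10 μM DMI as 100%.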

Structures can show the parent of a compound that is named as a salt.

T1 sequence (P31645 whole entry): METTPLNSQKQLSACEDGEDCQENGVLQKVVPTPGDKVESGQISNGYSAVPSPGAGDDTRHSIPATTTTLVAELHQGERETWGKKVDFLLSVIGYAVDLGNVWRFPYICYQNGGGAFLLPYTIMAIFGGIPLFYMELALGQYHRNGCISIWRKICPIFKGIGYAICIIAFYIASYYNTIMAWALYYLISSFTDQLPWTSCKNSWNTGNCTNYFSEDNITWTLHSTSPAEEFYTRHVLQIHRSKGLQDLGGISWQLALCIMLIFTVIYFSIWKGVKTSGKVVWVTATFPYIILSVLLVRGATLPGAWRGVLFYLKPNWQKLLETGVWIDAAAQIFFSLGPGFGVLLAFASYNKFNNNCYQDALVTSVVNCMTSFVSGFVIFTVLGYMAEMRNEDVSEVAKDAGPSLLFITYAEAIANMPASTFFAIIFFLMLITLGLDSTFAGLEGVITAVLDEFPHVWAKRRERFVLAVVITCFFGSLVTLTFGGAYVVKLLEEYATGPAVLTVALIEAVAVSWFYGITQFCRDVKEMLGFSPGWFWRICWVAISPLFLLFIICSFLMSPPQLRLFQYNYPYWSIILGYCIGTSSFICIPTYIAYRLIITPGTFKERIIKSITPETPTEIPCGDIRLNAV
T3 sequence (P23975 whole entry): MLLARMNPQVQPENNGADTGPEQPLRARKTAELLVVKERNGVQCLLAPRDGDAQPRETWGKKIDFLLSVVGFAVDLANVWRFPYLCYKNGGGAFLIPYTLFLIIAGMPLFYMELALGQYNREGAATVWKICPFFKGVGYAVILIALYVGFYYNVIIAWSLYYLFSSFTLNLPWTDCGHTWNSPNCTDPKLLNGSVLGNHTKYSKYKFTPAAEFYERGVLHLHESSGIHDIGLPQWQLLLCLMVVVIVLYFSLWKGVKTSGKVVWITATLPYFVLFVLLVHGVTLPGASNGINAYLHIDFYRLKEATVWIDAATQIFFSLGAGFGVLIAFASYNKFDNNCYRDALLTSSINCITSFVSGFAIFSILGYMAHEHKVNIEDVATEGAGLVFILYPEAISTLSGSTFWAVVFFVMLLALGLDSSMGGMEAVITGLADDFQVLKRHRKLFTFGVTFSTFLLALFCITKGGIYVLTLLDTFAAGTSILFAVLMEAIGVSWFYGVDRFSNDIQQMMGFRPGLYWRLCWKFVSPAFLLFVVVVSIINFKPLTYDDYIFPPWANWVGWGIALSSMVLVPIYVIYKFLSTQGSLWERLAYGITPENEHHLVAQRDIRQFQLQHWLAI

For `OCC(O)(CO)[C@@H]1OCCNC[C@H]1c1ccc(Cl)c(Cl)c1` [Example 491, 2-[(6R,7R)-6-(3,4-dichlorophenyl)-1,4-oxazepan-7-yl]propane-1,2,3-triol monohydrochloride], the inhibition at 1 µM in test [1] is 77%; in test [2] it was 77%; in test [3], 100%.
Regarding `OCCOC[C@@H]1OCCNC[C@H]1c1ccc(Cl)c(Cl)c1` [Example 496, 2-{[(6R,7R)-6-(3,4-dichlorophenyl)-1,4-oxazepan-7-yl]methoxy}ethanol monohydrochloride], the inhibition at 1 µM in test [1] worked out at 62%; in test [2], 57%; in test [3] it was 105%.
Taken in the same sequence, the figures for `O=C(CO)NC[C@@H]1OCCNC[C@H]1c1ccc(Cl)c(Cl)c1` [Example 507, N-{[(6R,7R)-6-(3,4-dichlorophenyl)-1,4-oxazepan-7-yl]methyl}-2-hydroxyacetamide monohydrochloride] were 46%, 25% and 104%.
Taken in the same sequence, the figures for `O=c1cccnn1C[C@@H]1OCCNC[C@H]1c1ccc(Cl)c(Cl)c1` [Example 515, 2-{[(6R,7R)-6-(3,4-dichlorophenyl)-1,4-oxazepan-7-yl]methyl}pyridazin-3(2H)-one monohydrochloride] were 82%, 53% and 104%.
In the case of `O=c1[nH]c(-c2cccnc2OC2CNCCOC2c2ccc(Cl)c(Cl)c2)no1` (stereo not drawn) [Example 525, 3-(2-{[(6R*,7S*)-7-(3,4-dichlorophenyl)-1,4-oxazepan-yl]oxy}pyridin-3-yl)-1,2,4-oxadiazol-5(4H)-one monohydrochloride (retention time long)], the figures for the inhibition at 1 µM in test [1], in test [2] and in test [3] were 97%, 98% and 104%, respectively.
The corresponding values for `O=C1NCCCN1C[C@H]1OCCNC[C@H]1c1ccc(Cl)c(Cl)c1` [Example 545, 1-{[(6R,7S)-6-(3,4-dichlorophenyl)-1,4-oxazepan-7-yl]methyl}tetrahydropyrimidin-2(1H)-one monohydrochloride] are 94%, 81% and 108%.
The corresponding values for `O=c1[nH]nc(-c2cccn(C[C@@H]3CNCCO[C@H]3c3ccc(Cl)c(F)c3)c2=O)o1` [Example 550, 1-{[(6S,7R)-7-(4-chloro-3-fluorophenyl)-1,4-oxazepan-6-yl]methyl}-3-(5-oxo-4,5-dihydro-1,3,4-oxadiazol-2-yl)pyridin-2(1H)-one monohydrochloride] are 97%, 46% and 109%.
Taken in the same sequence, the figures for `O[C@@H]1CNCCO[C@H]1c1ccc(Cl)c(F)c1` [Example 552, (6R,7S)-7-(4-chloro-3-fluorophenyl)-1,4-oxazepan-6-ol monohydrochloride] were 14%, 1% and 107%.
`O=c1[nH]nc(-c2cccnc2O[C@@H]2CNCCO[C@H]2c2ccc(Cl)c(F)c2)[nH]1` [Example 558, 5-(2-{[(6R,7S)-7-(4-chloro-3-fluorophenyl)-1,4-oxazepan-6-yl]oxy}pyridin-3-yl)-2,4-dihydro-3H-1,2,4-triazol-3-one monohydrochloride]: the inhibition at 1 µM in test [1] stood at 81%; in test [2] it was 100%; in test [3], 106%.
Taken in the same sequence, the figures for `Cc1nnc(-c2cccnc2O[C@@H]2CNCCO[C@H]2c2ccc(Cl)c(F)c2)[nH]1` [Example 568, (6R,7S)-7-(4-chloro-3-fluorophenyl)-6-{[3-(5-methyl-4H-1,2,4-triazol-3-yl)pyridin-2-yl]oxy}-1,4-oxazepane monohydrochloride] were 94%, 100% and 103%.
Taken in the same sequence, the figures for `CS(=O)(=O)CC1(O)CNCCOC1c1ccc(Cl)c(F)c1` (stereo not drawn) [Example 572, 7-(4-chloro-3-fluoro-phenyl)-6-[(methyl-sulfonyl)-methyl]-1,4-oxazepan-ol] were 95%, 62% and 103%.
Taken in the same sequence, the figures for `OC[C@H](O)[C@H]1OCCNC[C@H]1c1ccc(Cl)c(Cl)c1` [Example 578, (1S)-1-[(6R, 7S)-6-(3,4-dichloro-phenyl)-1,4-oxazepan-7-yl]ethane-1,2-diol] were 28%, 68% and 99%.
With `OC[C@@H](O)[C@H]1OCCNC[C@H]1c1ccc(Cl)c(Cl)c1` [Example 579, (1R)-1-[(6R, 7S)-6-(3,4-dichloro-phenyl)-1,4-oxazepan-7-yl]ethane-1,2-diol], the inhibition at 1 µM amounted to 61% in test [1], 49% in test [2] and 96% in test [3].
Regarding `O=C(O)c1ccnn(C[C@@H]2CNCCO[C@H]2c2ccc(Cl)c(F)c2)c1=O` [Example 597, 2-{[(6S, 7R)-7-(4-chloro-3-fluoro-phenyl)-1,4-oxazepan-6-yl]methyl}-3-oxo-2,3-dihydro-pyridazine-4-carboxylic acid], the inhibition at 1 µM in test [1] came to 78%; in test [2], 38%; in test [3], 104%.
